Measured values from ChEMBL document CHEMBL5523762, “Discovery of Potent and Selective G9a Degraders for the Treatment of Pancreatic Cancer” (J Med Chem, 2024).
Blank lines part the entries; values can stand above or below the compound they belong to. Calls of active or inactive are those of the source. The calls are words filed in the database; no cut-off is given here.

Key:
[1] = target: T1, Histone-lysine N-methyltransferase EHMT2 (Homo sapiens) (UniProt Q96KQ7); assay: Inhibition of N-terminal GST tagged human recombinant G9a (785 to 1210 residues) expressed in Escherichia coli using H3(1 to 21)K9me1 and SAM as substrates incubated for 1 hr by HTRF assay
T1 sequence (whole entry): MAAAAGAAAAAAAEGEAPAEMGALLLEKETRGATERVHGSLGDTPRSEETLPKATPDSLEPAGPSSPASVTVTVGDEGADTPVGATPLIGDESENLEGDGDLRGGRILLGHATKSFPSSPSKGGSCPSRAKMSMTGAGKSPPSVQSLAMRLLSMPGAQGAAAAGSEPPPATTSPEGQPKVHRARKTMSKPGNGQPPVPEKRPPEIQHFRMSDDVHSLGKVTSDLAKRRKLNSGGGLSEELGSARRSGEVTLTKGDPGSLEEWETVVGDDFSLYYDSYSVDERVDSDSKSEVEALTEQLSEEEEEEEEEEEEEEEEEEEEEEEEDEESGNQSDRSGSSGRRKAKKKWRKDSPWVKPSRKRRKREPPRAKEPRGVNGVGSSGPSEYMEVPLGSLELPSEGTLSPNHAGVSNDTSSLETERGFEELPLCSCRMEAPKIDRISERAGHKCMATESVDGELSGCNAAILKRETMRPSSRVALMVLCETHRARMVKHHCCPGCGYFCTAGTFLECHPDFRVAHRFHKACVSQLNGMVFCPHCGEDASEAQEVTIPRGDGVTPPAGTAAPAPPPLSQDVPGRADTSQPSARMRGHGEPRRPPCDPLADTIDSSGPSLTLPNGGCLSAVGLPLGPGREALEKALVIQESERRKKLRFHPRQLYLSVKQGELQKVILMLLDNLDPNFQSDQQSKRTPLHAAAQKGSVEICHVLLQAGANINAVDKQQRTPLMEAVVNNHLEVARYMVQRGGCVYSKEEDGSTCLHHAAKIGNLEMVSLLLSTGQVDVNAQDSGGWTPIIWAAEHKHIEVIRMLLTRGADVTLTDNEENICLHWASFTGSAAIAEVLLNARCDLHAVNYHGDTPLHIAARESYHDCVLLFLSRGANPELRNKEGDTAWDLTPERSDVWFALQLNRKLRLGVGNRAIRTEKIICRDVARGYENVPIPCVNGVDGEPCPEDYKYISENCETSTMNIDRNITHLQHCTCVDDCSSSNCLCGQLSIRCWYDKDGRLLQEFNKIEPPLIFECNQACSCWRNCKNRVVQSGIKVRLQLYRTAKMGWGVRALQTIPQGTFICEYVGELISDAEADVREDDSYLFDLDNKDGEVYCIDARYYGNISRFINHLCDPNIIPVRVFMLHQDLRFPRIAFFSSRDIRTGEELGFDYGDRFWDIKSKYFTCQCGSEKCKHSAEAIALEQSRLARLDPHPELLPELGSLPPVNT

[2] = target: T1, Histone-lysine N-methyltransferase EHMT2 (Homo sapiens); assay: Induction of G9a degradation in human PANC-1 cells assessed as reduction in G9a protein level at 50 uM measured at 16 hrs by Western blot analysis; assay type: cell-based
[3] = target: T2, Protein cereblon/Histone-lysine N-methyltransferase EHMT2 (Homo sapiens, UniProt Q96KQ7+Q96SW2); assay: PROTAC activity at CRBN/G9a in human PANC-1 cells assessed as induction of G9a degradation at 0.1 to 1 uM measured after 24 hrs by Western blot analysis; assay type: cell-based; details: dose 0.1-1 µM
T2 sequence (Q96SW2 whole entry partner, one chain of several): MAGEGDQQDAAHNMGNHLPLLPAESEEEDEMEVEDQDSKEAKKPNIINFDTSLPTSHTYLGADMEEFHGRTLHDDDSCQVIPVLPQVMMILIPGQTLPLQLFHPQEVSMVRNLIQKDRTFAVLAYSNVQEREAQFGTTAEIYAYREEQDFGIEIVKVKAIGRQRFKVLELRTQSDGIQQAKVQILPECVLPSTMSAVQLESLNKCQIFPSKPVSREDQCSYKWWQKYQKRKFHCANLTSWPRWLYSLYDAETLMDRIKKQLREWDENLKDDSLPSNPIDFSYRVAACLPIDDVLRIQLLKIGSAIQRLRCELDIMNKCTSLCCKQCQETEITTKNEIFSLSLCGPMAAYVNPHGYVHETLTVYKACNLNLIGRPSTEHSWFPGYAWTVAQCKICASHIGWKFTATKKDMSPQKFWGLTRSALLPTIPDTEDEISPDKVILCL

[4] = target: T2, Protein cereblon/Histone-lysine N-methyltransferase EHMT2; assay: PROTAC activity at CRBN/G9a in human PANC-1 cells assessed as induction of G9a degradation at 1 uM by Western blot analysis; assay type: cell-based
[5] = target: T2, Protein cereblon/Histone-lysine N-methyltransferase EHMT2; assay: PROTAC activity at CRBN/G9a in human PANC-1 cells assessed as induction of G9a degradation at 0.1 uM measured after 24 hrs by Western blot analysis; assay type: cell-based
[6] = target: T1, Histone-lysine N-methyltransferase EHMT2 (Homo sapiens); assay: Induction of G9a degradation in human PANC-1 cells assessed as reduction in G9a protein level at 10 uM in presence of 1 uM UNC0638 by Western blot analysis; assay type: cell-based
[7] = target: T1, Histone-lysine N-methyltransferase EHMT2 (Homo sapiens); assay: Induction of G9a degradation in human PANC-1 cells assessed as reduction in G9a protein level at 10 uM by Western blot analysis; assay type: cell-based

Structure (SMILES): COc1cc2c(NC3CCN(CCCC(=O)NCCOCCOCCNc4cccc5c4C(=O)N(C4CCC(=O)NC4=O)C5=O)CC3)nc(C3CCCCC3)nc2cc1OCCCN1CCCC1 (stereo not given)
inhibition [1]: Active

Structure (SMILES): N=C(NCCCCCCNC(=N)NC(=N)Nc1ccc(Cl)cc1)NC(=N)Nc1ccc(Cl)cc1
Activity [2]: Active

Structure (SMILES): COc1cc2c(NC3CCN(CCCC(=O)NCCCCCCCCOc4cccc5c4C(=O)N(C4CCC(=O)NC4=O)C5=O)CC3)nc(C3CCCCC3)nc2cc1OCCCN1CCCC1 (stereo not given)
inhibition [1]: Active

Structure (SMILES): COc1cc2c(NC3CCN(CCCC(=O)NCCCCCCCCNc4ccc5c(c4)C(=O)N(C4CCC(=O)NC4=O)C5=O)CC3)nc(C3CCCCC3)nc2cc1OCCCN1CCCC1 (stereo not given)
inhibition [1]: Active

Structure (SMILES): COc1cc2c(NC3CCN(CCCC(=O)NCCCCCCCCNc4cccc5c4C(=O)N(C4CCC(=O)NC4=O)C5=O)CC3)nc(C3CCCCC3)nc2cc1OCCCN1CCC(F)(F)CC1 (stereo not given)
Activity [4]: inactive

Structure (SMILES): COc1cc2c(NC3CCN(CCCC(=O)NCCCCCCCCNc4cccc5c4C(=O)N(C4CCC(=O)N(C)C4=O)C5=O)CC3)nc(C3CCCCC3)nc2cc1OCCCN1CCCC1 (stereo not given)
Activity [4]: inactive

Structure (SMILES): O=C1CCC(N2C(=O)c3ccccc3C2=O)C(=O)N1 (stereo not given)
Activity [6]: inactive
Activity [7]: inactive

The remaining lines, values ahead:

Activity [3]: inactive
Structure (SMILES): COc1cc2c(NC3CCN(C(=O)CCC(=O)NCCCCCCCCNc4cccc5c4C(=O)N(C4CCC(=O)NC4=O)C5=O)CC3)nc(C3CCCCC3)nc2cc1OCCCN1CCCC1 (stereo not given)

inhibition [1]: Active
Activity [5]: inactive
Structure (SMILES): COc1cc2c(NC3CCN(CCCC(=O)NCCCCCCCNc4cccc5c4C(=O)N(C4CCC(=O)NC4=O)C5=O)CC3)nc(C3CCCCC3)nc2cc1OCCCN1CCCC1 (stereo not given)

inhibition [1]: Active
Activity [5]: inactive
Structure (SMILES): COc1cc2c(NC3CCN(CCCC(=O)NCCCCCCCCCCNc4cccc5c4C(=O)N(C4CCC(=O)NC4=O)C5=O)CC3)nc(C3CCCCC3)nc2cc1OCCCN1CCCC1 (stereo not given)

inhibition [1]: Active
Activity [5]: inactive
Structure (SMILES): COc1cc2c(NC3CCN(CCCC(=O)NCCCCCCCCCNc4cccc5c4C(=O)N(C4CCC(=O)NC4=O)C5=O)CC3)nc(C3CCCCC3)nc2cc1OCCCN1CCCC1 (stereo not given)
